Measurements published in patent US7071203B2, “Pharmaceutically acceptable salts of 20(s)-camptothecins” (Dr. Reddy's Laboratories Limited, priority 2001, dated 2006).
Counter-ions that a name gives are not always drawn. Like-named read-outs stand apart in the source and are kept apart here.

Assays:
ACHN = assay: Sulforhodamine B growth inhibition, renal cell line ACHN; assay type: cell-based, human; settings: 48 h; for GI50: Homo sapiens, read-out: Growth Inhibition (GI 50)
Experimental: (§1) Each test compound was screened against a battery of cell lines representing eight different types of cancers. In a typical procedure, 1×10^4 cells were seeded into each well of 96 well plate in 100 μL volume of RPMI 1640 medium containing antibiotics and 10% FCS.
(§2) The plates were incubated at 37° C. in presence of CO2. After 24 h, test compounds were evaluated at five 10-fold dilutions ranging from 100 to 0.01 μM. To each test well 100 μL of test compound solution was added and medium with vehicle was added to control wells and the plates were further incubated. After 48 h of incubation, plates were terminated by Sulforhodamine B method.
(§3) The optical density, which is proportional to protein mass, is then read by automated spectrophotometric plate reader at a wavelength of 515 nm. Readings were transferred to a microcomputer and mean 50% Growth Inhibition (GI50) and mean Total Growth Inhibition were calculated.

UACC-62 = assay: Sulforhodamine B growth inhibition, melanoma cell line UACC-62; assay type: cell-based, human; settings: for GI50: Homo sapiens, read-out: Growth Inhibition (GI 50)
Experimental: as §1, §2, §3

DU-145 = assay: Sulforhodamine B growth inhibition, prostate cell line DU-145; assay type: cell-based, human; settings: for GI50: Homo sapiens, read-out: Growth Inhibition (GI 50)
Experimental: as §1, §2, §3

OVCAR-8 = assay: Sulforhodamine B growth inhibition, ovarian cell line OVCAR-8; assay type: cell-based, human; settings: OVARIAN: OVCAR-8, 48 h; for GI50: Homo sapiens, read-out: Growth Inhibition (GI 50)
Experimental: as §1, §2, §3

MCF-7/ADR = assay: Sulforhodamine B growth inhibition, breast cell line MCF-7/ADR; assay type: cell-based, human; settings: 48 h; for GI50: Homo sapiens, NCI/ADR-RES, read-out: Growth Inhibition (GI 50)
Experimental: as §1, §2, §3

SF-268 = assay: Sulforhodamine B growth inhibition, CNS cell line SF-268; assay type: cell-based, human; settings: CNS: SF-268, 48 h; for GI50: Homo sapiens, read-out: Growth Inhibition (GI 50)
Experimental: as §1, §2, §3

HOP-62 = assay: Sulforhodamine B growth inhibition, lung cell line HOP-62; assay type: cell-based, human; settings: LUNG: HOP-62, 48 h; for GI50: Homo sapiens, read-out: Growth Inhibition (GI 50)
Experimental: as §1, §2, §3

PC-3 = assay: Sulforhodamine B growth inhibition, prostate cell line PC-3; assay type: cell-based, human; settings: PROSTATE: PC-3, 48 h
Experimental: as §1, §2, §3

PA-1 = assay: Sulforhodamine B growth inhibition, ovarian cell line PA-1; assay type: cell-based, human; settings: OVARIAN: PA-1, 48 h
Experimental: as §1, §2, §3

H 522 = assay: Sulforhodamine B growth inhibition, lung cell line H 522; assay type: cell-based, human
Experimental: as §1, §2, §3

MCF 7 = assay: Sulforhodamine B growth inhibition, breast cell line MCF 7; assay type: cell-based, human
Experimental: as §1, §2, §3

SKOV-3 = assay: Sulforhodamine B growth inhibition, ovarian cell line SKOV-3; assay type: cell-based, human
Experimental: as §1, §2, §3

SW-620 = assay: Sulforhodamine B growth inhibition, colon cell line SW-620; assay type: cell-based, human; settings: COLON: SW-620, 48 h
Experimental: as §1, §2, §3

[1] = Single dose oral pharmacokinetic studies; assay type: in vivo, Male Swiss Albino Mice
Experimental: Male Swiss Albino Mice (20–30 g) were used in the experiments. The animals were maintained under standard laboratory conditions and had free access to feed and water ad libitum. Before experimentation animals were fasted overnight (˜15 h) during which they had free access to water ad libitum.
An amount equivalent to 10 mg of drug was weighed accurately and transferred into a clean mortar and triturated to obtain a fine powder. To this 500 μl of DMSO (10%) was added to obtain a clear solution. To this 4.5 ml of sodium carboxy methyl cellulose (sodium CMC) was added to make up the volume to 5 ml. Based on the animal weight appropriate volume (body weight in grams×10=no. of μl of dose to be given) of the prepared solution was administered through oral gavage.
After dosing, at designated time points (0.5, 1, 2, 3, 5, 8 and 12 h) 100 μl of blood was collected from retro orbital plexus into 0.5 ml eppendorff tubes containing EDTA (5 μl of 200 mg/ml solution in Milli Q water). Blood was centrifuged at 12,800 rpm for 2 min and plasma was separated and immediately taken for analysis, without delay, in order to estimate both lactone and carboxylate forms of the compound.
50 μl plasma was transferred into a clean 2 ml micro centrifuge tube. To this ice cold methanol was added (450 μl) and vertex mixed for 15 sec to extract the compound. These contents were centrifuged for 2 min at 12,800 rpm dry centrifuge tube. Clear supernatant was separated in to a 300 μl of auto sampler vial maintained at 4° C. and 20 μl of this was injected into HPLC column. HPLC Conditions:
HPLC system (Shimadzu) consisted of system controller (SCL-10AVP), Isocratic pump (LC-10ATVP), auto sampler (SIL-10ADVP), fluorescence detector (RF-10AXL) and column oven at 25° C. (CTO-1OASVP) was controlled by Class-VP software. Sample was eluted through column (Supelcosil-LC318, 5μ, 4.6×250 mm, 300° A) with mobile phase [1% TEAA (pH=5.5):Acetonitrile:MeOH::80:15:5) pumped at 1.0 ml/min flow rate and eluent was detected using fluorescence detector set at Ex. 370 nm/Em. 537 nm. The approx. RTs were carboxylate (CA1=4.1 min, CA2=4.8 min) and lactone (LA1=7.9 min, LA2=11.6 min).
For the determination of drug concentration, peak area ratios of the drug to internal standard versus the concentration (range: 0.05–10 μg/ml) for both carboxylate and lactone forms were plotted separately and linear regression was applied using software “Sigma Plot” (Jandel Scientific version, 2.0, USA). Correlation coefficients (r^2) of 0.99 or better were obtained.
Pharmacokinetic parameters were calculated for both carboxylate and lactone forms separately by non-compartmental model analysis. The peak plasma concentration (Cmax) and the corresponding time (Tmax) were directly obtained from the raw data. The area under the plasma concentration versus time curve up to the last quantifiable time point, AUC(0-t) was obtained by the linear and log-linear trapezoidal summation. The AUC(0-t) extrapolated to infinity (i.e., AUC (0-∞)) by adding the quotient of Clast/Kel, where Clast represents the last measurable time concentration and Kel represents the apparent terminal rate constant. Kel was calculated by the linear regression of the log-transformed concentrations of the drug in the terminal phase. The half-life of the terminal elimination phase was obtained using the relationship t1/2=0.693/ Kel.

A 498 = assay: Sulforhodamine B growth inhibition, renal cell line A 498; assay type: cell-based, human
Experimental: as §1, §2, §3

U251 = assay: Sulforhodamine B growth inhibition, CNS cell line U251; assay type: cell-based, human
Experimental: as §1, §2, §3

[2] = MELANOMA: UACC-62, 48 h, Sulforhodamine B
[3] = PROSTATE: DU-145, 48 h, Sulforhodamine B
[4] = BREAST: MCF-7/ADR, Sulforhodamine B
[5] = Homo sapiens, read-out: Growth Inhibition (GI 50)
[6] = Lactone, single oral dose, mice, plasma, n = 3
[7] = male, Swiss Albino, mouse, in vivo, po

Compound: CC[C@@]1(O)C(=O)OCc2c1cc1n(c2=O)C(O)c2cc3c(CN(C)C)c(O)ccc3nc2-1 (stereo partly drawn) [Example 1, 10-Hydroxy-9-N,N-dimethylaminomethyl-5-hydroxy-20(S)-camptothecin hydrochloride]
- Total Growth Inhibition (TGI) (ACHN): 1.0 µM
- GI50 (ACHN): 0.4 µM
- GI50 (UACC-62; UACC-62, 48 h): 0.7 µM
- Total Growth Inhibition (TGI) (UACC-62; [2]): 4.5 µM
- GI50 (DU-145; DU-145, 48 h): 0.4 µM
- Total Growth Inhibition (TGI) (DU-145; [3]): 0.8 µM
- GI50 (OVCAR-8): 0.5 µM
- Total Growth Inhibition (TGI) (OVCAR-8): >100 µM
- Total Growth Inhibition (TGI) (MCF-7/ADR; [4]): 0.9 µM
- GI50 (MCF-7/ADR): 0.25 µM
- Total Growth Inhibition (TGI) (SF-268): 90.0 µM
- GI50 (SF-268): 0.55 µM
- GI50 (HOP-62): 0.6 µM
- Total Growth Inhibition (TGI) (HOP-62): 25.0 µM

Compound: CC[C@@]1(O)C(=O)OCc2c1cc1n(c2=O)C(OCCO)c2cc3c(CN(C)C)c(O)ccc3nc2-1 (stereo partly drawn) [Example 2, 10-Hydroxy-9-N,N-dimethylaminomethyl-5-(2′-hydroxyethoxy)-20(S)-camptothecin hydrochloride]
- Total Growth Inhibition (TGI) (ACHN): 40.0 µM
- GI50 (ACHN): 4 µM
- GI50 (UACC-62; UACC-62, 48 h): 6 µM
- Total Growth Inhibition (TGI) (UACC-62; [2]): 6.0 µM
- GI50 (DU-145; DU-145, 48 h): 5.5 µM
- Total Growth Inhibition (TGI) (DU-145; [3]): 25.0 µM
- GI50 (OVCAR-8): 1 µM
- Total Growth Inhibition (TGI) (OVCAR-8): 80.0 µM
- Total Growth Inhibition (TGI) (MCF-7/ADR; [4]): 50.0 µM
- GI50 (MCF-7/ADR): 7.5 µM
- Total Growth Inhibition (TGI) (SF-268): >100 µM
- GI50 (SF-268): 7.5 µM
- GI50 (HOP-62): 8 µM
- Total Growth Inhibition (TGI) (HOP-62): >100 µM

Compound: CC[C@@]1(O)C(=O)OCc2c1cc1n(c2=O)C(OCCF)c2cc3c(CN(C)C)c(O)ccc3nc2-1 (stereo partly drawn) [Example 3, 10-Hydroxy-9-N,N-dimethylaminomethyl-5-(2′-fluoroethoxy)-20(S)-camptothecin hydrochloride]
- GI50 (UACC-62; [2]): 1.5 µM
- Total Growth Inhibition (TGI) (UACC-62; [2]): 8.0 µM
- GI50 (PC-3; [5]): 9 µM
- Total Growth Inhibition (TGI) (PC-3): >100 µM
- GI50 (PA-1; [5]): 1 µM
- Total Growth Inhibition (TGI) (PA-1): 5.0 µM
- GI50 (DU-145; [3]): 4 µM
- Total Growth Inhibition (TGI) (DU-145; [3]): >100 µM
- GI50 (H 522; Homo sapiens, NCI-H522, LUNG: H 522, 48 h, read-out: Growth Inhibition (GI 50)): 0.9 µM
- Total Growth Inhibition (TGI) (H 522; LUNG: H 522, 48 h): 90.0 µM
- Total Growth Inhibition (TGI) (MCF 7; BREAST: MCF 7, 48 h): 10.0 µM
- GI50 (MCF 7; Homo sapiens, MCF7, BREAST: MCF 7, 48 h, read-out: Growth Inhibition (GI 50)): 7.5 µM
- GI50 (SKOV-3; Homo sapiens, SK-OV-3, OVARIAN: SKOV-3, 48 h, read-out: Growth Inhibition (GI 50)): 6 µM
- Total Growth Inhibition (TGI) (SKOV-3; OVARIAN: SKOV-3, 48 h): 40.0 µM
- Total Growth Inhibition (TGI) (MCF-7/ADR; [4]): >100 µM
- GI50 (MCF-7/ADR; [4]): 8 µM
- Total Growth Inhibition (TGI) (SW-620): >100 µM
- GI50 (SW-620; [5]): 60 µM
- Kel [1, 6]: 0.19 h⁻¹
- T1/2β(4,6,8h)^@ [1, 6]: 422 min
- AUC(0-inf) [1, 7]: 9.74 µM·h
- AUC(0-t) [1, 7]: 6.1 µM·h
- AUC(0–t) [1, 7]: 11.05 µM·h
- AUC(0–∞) [1, 7]: 15.14 µM·h
- Tmax [1, 7]: 15 min
- GI50 (A 498; Homo sapiens, A498, RENAL: A 498, 48 h, read-out: Growth Inhibition (GI 50)): 0.7 µM
- Total Growth Inhibition (TGI) (A 498; RENAL: A 498, 48 h): 15.0 µM
- Total Growth Inhibition (TGI) (U251; 48 h): >100 µM
- GI50 (U251; Homo sapiens, U-251, 48 h, read-out: Growth Inhibition (GI 50)): 1.5 µM
